± gives the expanded uncertainty stated by the source.
Conditions: Crystal; DTA

Normal melting temperature: 60.30 ± 5 °C
Structure (SMILES): CCCCn1cc[n+](C)c1.[Cl-] [1-butyl-3-methylimidazolium chloride]

Reference: the NIST ThermoML archive (doi:10.1021/je400076x)
